One assay deals with CLK1 (Homo sapiens, UniProt P49759). As to the kind of experiment: CLK1 in vitro kinase assay (RS peptide). The assay is classed as biochemical.
The target of a further assay is DYRK1A (Homo sapiens, UniProt Q13627). As to the kind of experiment: DYRK1A in vitro kinase assay (Woodtide). The assay is classed as biochemical. Here is the method:
(§1) Products of series 2a–j, 3a–c, 4a–f, 9a–i, and 10 were evaluated in five different in vitro kinase assays: CDK5/p25, CK1δ/ε (casein kinase 1), GSK-3α/β, DYRK1A (dual-specificity, tyrosine phosphorylation regulated kinase), and CLK1 [37, 38, 39].
(§2) Controls were performed with appropriate dilutions of dimethyl sulfoxide (DMSO).

The next assay addresses GSK-3α/β. Nature of the assay: GSK-3α/β in vitro kinase assay (GS-1 peptide). The class given is biochemical, porcine. The note with it: Table 4; ATP 15 μM, triplicate; <50% inhibition at 10 μM = IC50 >10 μM. Here is the method: as §1, §2
GSK-3α/β (porcine brain, native) was assayed, in buffer A, with 0.5 mg BSA/mL + 1 mM DTT, using GS-1 ([…]pEDEEE) (pS stands for phosphorylated serine), a GSK-3 specific substrate, in the presence of 15 μmol/L [γ-^33P] ATP (3000 Ci/mmol; 10 mCi/mL) in a final volume of 30 μL. After 30 min incubation at 30 °C, the reaction was stopped by harvesting onto P81 phosphocellulose […] (Whatman, Dutscher SAS, Brumath, France) using a FilterMate harvester (PerkinElmer, Courtaboeuf, France), and were washed in 1% phosphoric acid. Scintillation fluid was added, and the radioactivity measured in a Packard counter.

For another assay, the target named is T1, CDK5/p25 (Homo sapiens, UniProt Q00535).
T1 construct: made in house
T1 sequence (Q00535 whole entry): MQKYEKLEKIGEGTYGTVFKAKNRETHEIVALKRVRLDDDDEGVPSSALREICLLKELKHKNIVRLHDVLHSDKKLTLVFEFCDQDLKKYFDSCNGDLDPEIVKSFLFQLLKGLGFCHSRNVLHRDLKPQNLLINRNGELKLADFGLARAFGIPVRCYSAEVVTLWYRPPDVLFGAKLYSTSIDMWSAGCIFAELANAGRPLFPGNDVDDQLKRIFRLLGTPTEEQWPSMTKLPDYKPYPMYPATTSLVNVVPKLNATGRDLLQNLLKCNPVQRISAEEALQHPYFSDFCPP
T1 sequence (Q15078 99-307 partner limits assumed): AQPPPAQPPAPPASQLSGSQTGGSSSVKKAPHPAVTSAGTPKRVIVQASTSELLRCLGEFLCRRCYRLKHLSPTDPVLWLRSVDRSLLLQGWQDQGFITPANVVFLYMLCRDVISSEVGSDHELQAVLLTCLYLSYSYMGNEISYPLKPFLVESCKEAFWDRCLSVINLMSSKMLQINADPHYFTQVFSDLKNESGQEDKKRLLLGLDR
As to the kind of experiment: CDK5/p25 in vitro kinase assay (33P-ATP, histone H1). The class given is biochemical.

The target of a further assay is CK1δ/ε. Nature of the assay: CK1δ/ε in vitro kinase assay (CKS peptide). The note with it: Table 4; ATP 15 μM, triplicate; <50% inhibition at 10 μM = IC50 >10 μM. The assay is classed as biochemical, porcine. The protocol: as §1, §2
CK1δ/ε (porcine brain, native) was assayed as described for CDK1, but in buffer B, and using 25 μM CKS peptide ([…]pSAYSITA), a CK1-specific substrate.

Chain of CLK1 (P49759 whole entry): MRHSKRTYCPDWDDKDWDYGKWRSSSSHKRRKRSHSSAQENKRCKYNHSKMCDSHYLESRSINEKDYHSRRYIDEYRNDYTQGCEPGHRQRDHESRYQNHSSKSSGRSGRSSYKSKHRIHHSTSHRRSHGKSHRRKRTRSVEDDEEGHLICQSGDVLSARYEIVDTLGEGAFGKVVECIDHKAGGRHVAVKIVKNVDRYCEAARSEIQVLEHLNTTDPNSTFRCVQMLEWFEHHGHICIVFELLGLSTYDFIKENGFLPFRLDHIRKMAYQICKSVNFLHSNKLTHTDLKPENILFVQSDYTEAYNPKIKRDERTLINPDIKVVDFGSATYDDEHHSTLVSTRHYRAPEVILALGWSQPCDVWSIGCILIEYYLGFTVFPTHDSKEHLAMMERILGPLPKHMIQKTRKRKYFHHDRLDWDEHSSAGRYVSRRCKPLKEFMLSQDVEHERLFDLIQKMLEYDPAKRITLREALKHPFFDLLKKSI
Method for CDK5/p25: CDK5/p25 (Human, recombinant) was prepared as previously described [37]. Its kinase activity was assayed in buffer A, with 1 mg of histone H1/mL, in the presence of 15 μM [γ-^33P] ATP (3000 Ci/mmol; 10 mCi/mL) in a final volume of 30 μL. After 30 min incubation at 30 °C, 25 μL aliquots of supernatant were spotted onto sheets of Whatman P81 phosphocellulose paper, and 20 s later, the filters were washed eight times (for at least 5 min each time) in a solution of 10 mL phosphoric acid/L of water. The wet filters were counted in the presence of 1 mL ACS (Amersham) scintillation fluid.

What is called IC50 is the concentration at which inhibition is half-maximal. The low end stands for greater potency, the high end for weaker potency. Turning to `O=c1c2c(ccc3nc(-c4cccnc4)sc32)ncn1Cc1ccccc1` [3a], the IC50 was 2 µM against CLK1; 0.012 µM against DYRK1A; 3.7 µM at GSK-3α/β; more than 10 µM against CDK5/p25; more than 10 µM on CK1δ/ε.
On to `O=c1c2c(ccc3nc(-c4cnccn4)sc32)ncn1Cc1ccccc1` [3b], for which the IC50 on CLK1 was 3.33 µM; at DYRK1A, 0.133 µM; on GSK-3α/β it was 6 µM; against CDK5/p25, more than 10 µM; at CK1δ/ε, more than 10 µM.
Regarding `Cn1cnc2ccc3nc(-c4cccnc4)sc3c2c1=O` [4a, 8-Methyl-2-(pyridin-3-yl)thiazolo[5,4-f]quinazolin-9(8H)-one], the IC50 at CLK1, against DYRK1A, against GSK-3α/β and against CK1δ/ε was more than 10 µM each time.
For `CC(C)n1cnc2ccc3nc(-c4cccnc4)sc3c2c1=O` [4b, 8-Isopropyl-2-(pyridin-3-yl)thiazolo[5,4-f]quinazolin-9(8H)-one], the IC50 at CLK1, on DYRK1A, against GSK-3α/β and at CK1δ/ε was more than 10 µM each time.
As to `O=c1c2c(ccc3nc(-c4cccnc4)sc32)ncn1C1CC1` [4c, 8-Cyclopropyl-2-(pyridin-3-yl)thiazolo[5,4-f]quinazolin-9(8H)-one], the concentration for half-maximal inhibition (IC50) at CLK1 worked out at 0.018 µM; at DYRK1A it was 0.011 µM; against GSK-3α/β, 0.068 µM; on CK1δ/ε, 6 µM.
On to `O=c1c2c(ccc3nc(-c4cccnc4)sc32)ncn1C1CCC1` [4d, 8-Cyclobutyl-2-(pyridin-3-yl)thiazolo[5,4-f]quinazolin-9(8H)-one], for which the IC50 against CLK1, against DYRK1A, at GSK-3α/β and against CK1δ/ε was more than 10 µM in each case.
Consider `O=c1c2c(ccc3nc(-c4cccnc4)sc32)ncn1C1CCCC1` [4e, 8-Cyclopentyl-2-(pyridin-3-yl)thiazolo[5,4-f]quinazolin-9(8H)-one], for which the IC50 at CLK1, on DYRK1A, against GSK-3α/β and on CK1δ/ε was more than 10 µM each time.
Turning to `O=c1c2c(ccc3nc(-c4cccnc4)sc32)ncn1C1CCCCC1` [4f, 8-Cyclohexyl-2-(pyridin-3-yl)thiazolo[5,4-f]quinazolin-9(8H)-one], the IC50 at CLK1, at DYRK1A, on GSK-3α/β and against CK1δ/ε was more than 10 µM each time.
`COc1ccc2c(c1)[nH]c1c(C)nccc12` [Harmine, reference compound]: the IC50 at GSK-3α/β is more than 10 µM; on CK1δ/ε, 1.5 µM.
For `COc1ncccc1-c1nc2ccc3ncn(C4CC4)c(=O)c3c2s1` [compound 10], the IC50 against CLK1 is more than 10 µM; against DYRK1A, more than 10 µM; against GSK-3α/β, not below 10 µM; at CDK5/p25, more than 10 µM; on CK1δ/ε it was more than 10 µM. Further, the “DYRK inhibitory activity (in words)” value at DYRK1A (SAR discussion) was “inactive”.
